Data: PubChem BioAssay (NCI)
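The compound was tested at five concentrations on cells cultured in 96-well plates, with a 48-hour exposure period. GI50 = concentration required for 50% inhibition of growth. At the TGI there is no net growth.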

Legend:
Assay in all cases: NCI tumour cell line growth inhibition, 48 h
OVCAR-4 ovarian = system: OVCAR-4 ovarian
SF-539 CNS = system: SF-539 CNS
HCC-2998 colon = system: HCC-2998 colon
NCI/ADR-RES ovarian = system: NCI/ADR-RES ovarian
HCT-15 colon = system: HCT-15 colon
NCI-H460 lung = system: NCI-H460 lung
CCRF-CEM leukemia = system: CCRF-CEM leukemia
UACC-257 melanoma = system: UACC-257 melanoma
SF-295 CNS = system: SF-295 CNS
SF-268 CNS = system: SF-268 CNS

## Nc1ncnc2c1ncn2C1CCC(CO)O1 (stereo not given)
OVCAR-4 ovarian
  TGI: > 89.1 µM
SF-539 CNS
  TGI: > 100 µM
HCC-2998 colon
  TGI: > 77.4 µM
NCI/ADR-RES ovarian
  TGI: > 77.4 µM
HCT-15 colon
  TGI: > 100 µM
NCI-H460 lung
  TGI: > 100 µM
CCRF-CEM leukemia
  TGI: > 100 µM
UACC-257 melanoma
  TGI: > 100 µM
SF-295 CNS
  TGI: > 79.4 µM
SF-268 CNS
  TGI: > 87.7 µM

## CCN(CC)CCCC(Nc1c2ccc(Cl)cc2nc2ccc(OC)cc12)c1ccc(F)cc1 (stereo not given)
OVCAR-4 ovarian
  GI50: 1.71 µM
  TGI: 4.71 µM
SF-539 CNS
  GI50: 1.73 µM
  TGI: 3.25 µM
HCC-2998 colon
  GI50: 1.74 µM
  TGI: 3.25 µM
NCI/ADR-RES ovarian
  GI50: 2.38 µM
  TGI: 5.75 µM
HCT-15 colon
  GI50: 1.56 µM
  TGI: 3.27 µM
NCI-H460 lung
  GI50: 1.91 µM
  TGI: 3.84 µM
CCRF-CEM leukemia
  GI50: 2.4 µM
  TGI: 6.49 µM
UACC-257 melanoma
  GI50: 2.02 µM
  TGI: 4.1 µM
SF-295 CNS
  GI50: 1.6 µM
  TGI: 3.16 µM
SF-268 CNS
  GI50: 2.28 µM
  TGI: 5.33 µM

## Cc1cccc2c(N)c3cccc(C(=O)NCCN(C)C)c3nc12
OVCAR-4 ovarian
  TGI: 18 µM
HCC-2998 colon
  TGI: 0.218 µM
NCI/ADR-RES ovarian
  TGI: 4.74 µM
HCT-15 colon
  TGI: 4.29 µM
NCI-H460 lung
  TGI: 0.0262 µM
CCRF-CEM leukemia
  TGI: 0.0324 µM
UACC-257 melanoma
  TGI: 0.658 µM
SF-295 CNS
  TGI: 0.615 µM
SF-268 CNS
  TGI: 2.41 µM

## COc1c2c(cc3c(CCc4ccccc4)cc(=O)oc13)CCC(C)(C)O2
HCC-2998 colon
  TGI: > 100 µM
HCT-15 colon
  TGI: > 100 µM
NCI-H460 lung
  TGI: > 100 µM
CCRF-CEM leukemia
  TGI: > 100 µM
UACC-257 melanoma
  TGI: > 100 µM
SF-295 CNS
  TGI: > 100 µM
SF-268 CNS
  TGI: > 100 µM

## CC1=C[C@]2(CC(C)C3C(CC4(C)C5CCC6C(C)(C)C(=O)CC[C@@]67C[C@@]57CC[C@]34C)O2)OC1=O (stereo not given in full)
OVCAR-4 ovarian
  TGI: 57.5 µM
SF-539 CNS
  TGI: 42.5 µM
HCC-2998 colon
  TGI: > 100 µM
HCT-15 colon
  TGI: > 100 µM
NCI-H460 lung
  TGI: > 100 µM
CCRF-CEM leukemia
  TGI: > 100 µM
UACC-257 melanoma
  TGI: > 100 µM
SF-295 CNS
  TGI: 89.5 µM
SF-268 CNS
  TGI: > 100 µM

## CCOP(=O)(OCC)C(Cc1ccc(OC)c(OC)c1)N=C(c1ccccc1)c1ccccc1 (stereo not given)
OVCAR-4 ovarian
  TGI: > 100 µM
SF-539 CNS
  TGI: > 100 µM
HCC-2998 colon
  TGI: 52.4 µM
NCI/ADR-RES ovarian
  TGI: > 100 µM
HCT-15 colon
  TGI: > 100 µM
NCI-H460 lung
  TGI: > 100 µM
CCRF-CEM leukemia
  TGI: 96.9 µM
UACC-257 melanoma
  TGI: > 100 µM
SF-295 CNS
  TGI: > 100 µM
SF-268 CNS
  TGI: > 100 µM

## CC(C)=CC(=O)OC1C2C(C)C(=O)OC2C(O)C(C)C2C=CC(=O)C21C (stereo not given)
OVCAR-4 ovarian
  TGI: 6.42 µM
SF-539 CNS
  TGI: 9.5 µM
HCC-2998 colon
  TGI: 10.1 µM
NCI/ADR-RES ovarian
  TGI: 32.5 µM
HCT-15 colon
  TGI: 8.52 µM
NCI-H460 lung
  TGI: 6.33 µM
CCRF-CEM leukemia
  TGI: 8.18 µM
UACC-257 melanoma
  TGI: 8.4 µM
SF-295 CNS
  TGI: 13.4 µM
SF-268 CNS
  TGI: 8.42 µM

## CO/N=C1/c2sccc2[C@H](NC(=O)C(F)(F)F)[C@@H]1O
OVCAR-4 ovarian
  TGI: > 100 µM
SF-539 CNS
  TGI: > 100 µM
HCC-2998 colon
  TGI: > 100 µM
NCI/ADR-RES ovarian
  TGI: > 100 µM
HCT-15 colon
  TGI: > 100 µM
NCI-H460 lung
  TGI: > 100 µM
CCRF-CEM leukemia
  TGI: > 100 µM
UACC-257 melanoma
  TGI: > 100 µM
SF-295 CNS
  TGI: > 100 µM
SF-268 CNS
  TGI: > 100 µM
